≈ marks a conversion by molar mass, not a printed value.

The test system of the assay is Mycobacterium tuberculosis. Nature of the assay: Antimycobacterial activity against Mycobacterium tuberculosis H37Rv by agar dilution method. In kind it is functional. A general note: In agar dilution, organisms are placed on agar that contains the substance at set levels.
The compound `O=C1Nc2ccc([N+](=O)[O-])cc2[C@]12N1CSC[C@H]1[C@H](c1cccc(Cl)c1Cl)[C@]21Cc2ccccc2C1=O` registered an MIC of 2.8 µg/mL (≈ 5.07 µM).

The compound `Cc1ccc([C@H]2[C@@H]3CSCN3[C@@]3(C(=O)Nc4ccccc43)[C@@]23Cc2ccccc2C3=O)cc1` returned an MIC of over 55.2 µg/mL.

For `O=C1Nc2ccccc2[C@]12N1CSC[C@H]1[C@H](c1ccc(Cl)cc1)[C@]21Cc2ccccc2C1=O`, the lowest concentration to inhibit growth (MIC) was 52.9 µg/mL (≈ 112 µM).

Take `COc1ccc([C@H]2[C@@H]3CSCN3[C@@]3(C(=O)Nc4ccccc43)[C@@]23Cc2ccccc2C3=O)cc1`: the MIC was over 53.4 µg/mL.

`O=C1Nc2ccccc2[C@]12N1CSC[C@H]1[C@H](c1ccc(F)cc1)[C@]21Cc2ccccc2C1=O` yielded an MIC of 13.7 µg/mL (≈ 30 µM).

As for `O=C1Nc2ccccc2[C@]12N1CSC[C@H]1[C@H](c1ccc(Br)cc1)[C@]21Cc2ccccc2C1=O`, it took 24.2 µg/mL (≈ 46.8 µM) to inhibit growth (MIC).

Regarding `O=C1Nc2ccccc2[C@]12N1CSC[C@H]1[C@H](c1ccc([N+](=O)[O-])cc1)[C@]21Cc2ccccc2C1=O`, inhibition of growth (MIC) required 12.9 µg/mL (≈ 26.7 µM).

With `O=C1Nc2ccccc2[C@]12N1CSC[C@H]1[C@H](c1ccccc1Cl)[C@]21Cc2ccccc2C1=O`, inhibition of growth (MIC) required 26.4 µg/mL (≈ 55.8 µM).

`Cc1ccccc1[C@H]1[C@@H]2CSCN2[C@@]2(C(=O)Nc3ccccc32)[C@@]12Cc1ccccc1C2=O` gave an MIC of over 55.2 µg/mL.

On to `O=C1Nc2ccccc2[C@]12N1CSC[C@H]1[C@H](c1cccc(Cl)c1Cl)[C@]21Cc2ccccc2C1=O`, for which the MIC was found to be 12.3 µg/mL (≈ 24.2 µM).

In turn, `O=C1Nc2ccccc2[C@]12N1CSC[C@H]1[C@H](c1cccs1)[C@]21Cc2ccccc2C1=O` registered an MIC of 56.2 µg/mL (≈ 126 µM).

`O=C1Nc2ccc(Cl)cc2[C@]12N1CSC[C@H]1[C@H](c1ccc(Cl)cc1)[C@]21Cc2ccccc2C1=O` showed an MIC of 24.6 µg/mL (≈ 48.5 µM).

The compound `Cc1ccc([C@H]2[C@@H]3CSCN3[C@@]3(C(=O)Nc4ccc(Cl)cc43)[C@@]23Cc2ccccc2C3=O)cc1` showed an MIC of 51.3 µg/mL (≈ 105 µM).

The compound `COc1ccc([C@H]2[C@@H]3CSCN3[C@@]3(C(=O)Nc4ccc(Cl)cc43)[C@@]23Cc2ccccc2C3=O)cc1` displayed an MIC of over 49.7 µg/mL.

With `O=C1Nc2ccc(Cl)cc2[C@]12N1CSC[C@H]1[C@H](c1ccc(F)cc1)[C@]21Cc2ccccc2C1=O`, the MIC worked out at 12.7 µg/mL (≈ 25.9 µM).

For `O=C1Nc2ccc(Cl)cc2[C@]12N1CSC[C@H]1[C@H](c1ccc(Br)cc1)[C@]21Cc2ccccc2C1=O`, 11.3 µg/mL (≈ 20.5 µM) was the least that counted as inhibitory (MIC).

Turning to `O=C1Nc2ccc(Cl)cc2[C@]12N1CSC[C@H]1[C@H](c1ccc([N+](=O)[O-])cc1)[C@]21Cc2ccccc2C1=O`, the minimum inhibitory concentration (MIC) amounted to 12.1 µg/mL (≈ 23.4 µM). The MIC values of the last two compounds are within 1.5-fold of each other.

In the case of `O=C1Nc2ccc(Cl)cc2[C@]12N1CSC[C@H]1[C@H](c1ccccc1Cl)[C@]21Cc2ccccc2C1=O`, inhibition of growth (MIC) required 12.3 µg/mL (≈ 24.2 µM).

Turning to `Cc1ccccc1[C@H]1[C@@H]2CSCN2[C@@]2(C(=O)Nc3ccc(Cl)cc32)[C@@]12Cc1ccccc1C2=O`, the MIC was 25.7 µg/mL (≈ 52.8 µM).

The compound `Cc1ccc([C@H]2[C@@H]3CSCN3[C@@]3(C(=O)Nc4ccc([N+](=O)[O-])cc43)[C@@]23Cc2ccccc2C3=O)cc1` gave an MIC of 25.1 µg/mL (≈ 50.4 µM). The MIC values of the last two compounds are within 1.5-fold of each other.

In turn, `O=C1Nc2ccc(Cl)cc2[C@]12N1CSC[C@H]1[C@H](c1cccc(Cl)c1Cl)[C@]21Cc2ccccc2C1=O` returned an MIC of 5.8 µg/mL (≈ 10.7 µM).

`O=C1Nc2ccc(Cl)cc2[C@]12N1CSC[C@H]1[C@H](c1cccs1)[C@]21Cc2ccccc2C1=O` came in with an MIC of 52.2 µg/mL (≈ 109 µM).

With `O=C1Nc2ccc([N+](=O)[O-])cc2[C@]12N1CSC[C@H]1[C@H](c1ccc(Cl)cc1)[C@]21Cc2ccccc2C1=O`, 24.1 µg/mL (≈ 46.5 µM) was the least that counted as inhibitory (MIC).

Take `COc1ccc([C@H]2[C@@H]3CSCN3[C@@]3(C(=O)Nc4ccc([N+](=O)[O-])cc43)[C@@]23Cc2ccccc2C3=O)cc1`: the MIC stood at 24.3 µg/mL (≈ 47.3 µM).

In turn, `O=C1Nc2ccc([N+](=O)[O-])cc2[C@]12N1CSC[C@H]1[C@H](c1ccc(F)cc1)[C@]21Cc2ccccc2C1=O` displayed an MIC of 3.1 µg/mL (≈ 6.18 µM).

As for `O=C1Nc2ccc([N+](=O)[O-])cc2[C@]12N1CSC[C@H]1[C@H](c1ccc(Br)cc1)[C@]21Cc2ccccc2C1=O`, the MIC was 11.1 µg/mL (≈ 19.7 µM). Compared with the last compound, the MIC is about 3.6-fold higher.

Regarding `O=C1Nc2ccc([N+](=O)[O-])cc2[C@]12N1CSC[C@H]1[C@H](c1ccc([N+](=O)[O-])cc1)[C@]21Cc2ccccc2C1=O`, the lowest concentration to inhibit growth (MIC) was 5.9 µg/mL (≈ 11.2 µM).

As for `O=C1Nc2ccc([N+](=O)[O-])cc2[C@]12N1CSC[C@H]1[C@H](c1ccccc1Cl)[C@]21Cc2ccccc2C1=O`, the MIC was 12.1 µg/mL (≈ 23.4 µM).

In turn, `Cc1ccccc1[C@H]1[C@@H]2CSCN2[C@@]2(C(=O)Nc3ccc([N+](=O)[O-])cc32)[C@@]12Cc1ccccc1C2=O` yielded an MIC of 25.1 µg/mL (≈ 50.4 µM).

`CC[C@@H](CO)NCCN[C@@H](CC)CO` [ETHAMBUTOL] came in with an MIC of 7.6 µg/mL (≈ 37.2 µM).

`NNC(=O)c1ccncc1` [ISONIAZID] registered an MIC of 0.4 µg/mL (≈ 2.92 µM). This MIC lies about 19-fold lower than the previous one.

For `CO[C@H]1/C=C/O[C@@]2(C)Oc3c(C)c(O)c4c(O)c(c(/C=N/N5CCN(C)CC5)c(O)c4c3C2=O)NC(=O)/C(C)=C\C=C\[C@H](C)[C@H](O)[C@@H](C)[C@@H](O)[C@@H](C)[C@H](OC(C)=O)[C@@H]1C` [RIFAMPIN], the MIC came to 0.1 µg/mL (≈ 0.122 µM).

A word on the MIC: it is the lowest concentration that inhibits growth of the organism. Read a high MIC as a need for much substance.

The record behind these values is ChEMBL document CHEMBL1629481, “A regio- and stereoselective 1,3-dipolar cycloaddition for the synthesis of novel spiro-pyrrolothiazolyloxindoles and their antitubercular evaluation” (2010).
